By Kd is commonly meant the constant that tells how readily two partners part at equilibrium.

In this test the target is T1, N (1-249) (Severe acute respiratory syndrome coronavirus 2, UniProt P0DTC9).
T1 construct: fragment 1-249 of the 419-residue protein (IDR1, NTD, IDR2); pET-28a, N-terminal 6xHis-SUMO tag removed with TEV protease; E. coli BL21; 15N-labelled
The test can be described thus: biochemical. It is filed as binding.

SMILES strings stand for the structures.

Regarding `Nc1ncnc2c1ncn2[C@@H]1O[C@H](COP(=O)(O)OP(=O)(O)OP(=O)(O)O)[C@@H](O)[C@H]1O` [ATP], binding was put at a Kd of 2000 ± 200 µM.

The values above are taken from PMC9862227, “ATP and nucleic acids competitively modulate LLPS of the SARS-CoV2 nucleocapsid protein” (Communications Biology, 2023).
